Measured values from paper PMC5681660, “Reduced hepatitis B and D viral entry using clinically applied drugs as novel inhibitors of the bile acid transporter NTCP” (Scientific Reports, 2017).
“Also recorded” adds a separate entry of the source. Where two headings read alike, the source gives them in different places.

What was measured:
[1] = WST-1 cytotoxicity, wildtype U2OS cells; details: human; for viability at 2 h, 1 µM / viability at 2 h, 100 µM / viability at 2 h, 10 µM: wildtype U2OS cells
HDV = HDV infection of HepaRG cells (HDAg immunofluorescence); type: cell-based, hepatitis delta virus; details: HDAg positive cells, day 5; concentration-dependent
HBV = details: for HBV infection in HepaRG cells (in words): HBeAg, HBsAg, HBcAg, concentration-dependent; for number of HBcAg positive stained cells: HepaRG cells, day 10 post HBV infection, 50 µM
in vitro = details: human
U2OS cells = assay: WST-1 cytotoxicity, wildtype U2OS cells; details: U2OS cells, 2 hours
U2OS-HA-hNTCP cells = details: 2 hours
human NTCP [2] = biological target: T1, human NTCP (Homo sapiens, UniProt Q14973); assay: Taurocholate uptake inhibition studies in U2OS-HA-hNTCP cells; type: cell-based; design: HA; expressed in transfected cells; details: for Taurocholate uptake into U2OS-HA-hNTCP cells (in words): increasing drug concentrations
T1 sequence (Q14973 1-349): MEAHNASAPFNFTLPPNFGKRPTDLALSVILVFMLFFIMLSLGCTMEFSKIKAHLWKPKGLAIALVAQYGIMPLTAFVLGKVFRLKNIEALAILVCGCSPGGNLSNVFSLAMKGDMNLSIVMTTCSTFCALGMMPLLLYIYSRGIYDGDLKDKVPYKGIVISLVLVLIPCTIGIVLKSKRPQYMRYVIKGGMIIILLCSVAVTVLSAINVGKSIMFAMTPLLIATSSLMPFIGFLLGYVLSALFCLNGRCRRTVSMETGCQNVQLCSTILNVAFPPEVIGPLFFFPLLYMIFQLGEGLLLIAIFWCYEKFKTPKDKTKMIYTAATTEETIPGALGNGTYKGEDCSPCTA
Procedure: (§1) For MDCK or MDCK-hASBT cells 70.000 cells/well were plated in 24-well plates, followed by 24 hours 10 mM sodium butyrate (Sigma-Aldrich) stimulation the next day. Cells were used in the inhibition studies 24 hours (U2OS cell lines) or 48 hours (MDCK cell lines) later. Inhibition studies with mNTCP transiently transfected cells were conducted 48–72 hours after transfection.
(§2) Medium was aspirated from the wells and cells were washed once with 250 µL uptake buffer. Subsequently, cells were pre-incubated with drug in 150 µL uptake buffer for 10 minutes at 37 °C. Taurocholate uptake was initiated by addition of 100 µL uptake buffer containing taurocholate (final concentration 10 µM TC spiked with tritium-labeled TC) and cells were incubated for 2 minutes at 37 °C. Subsequently, cells were washed 4 times with ice-cold PBS and lysed with 0.05% SDS in water. Radioactivity was measured by liquid scintillation counting.

human NTCP [3] = biological target: T1, human NTCP; assay: Myrcludex B-FITC binding by confocal microscopy in U2OS-HA-hNTCP cells; design: HA; expressed in transfected cells; details: for Myrcludex B-FITC fluorescence / binding to U2OS-HA-hNTCP cells (in words): co-administration with increasing amounts of drug; for ≥50% loss of Myrcludex B binding to hNTCP (concentration): confocal microscopy, 0.2 µM Myrcludex B-FITC, drug 1, 10, 100 µM, concentration at which binding inhibited minimally 50%
Procedure: After 24 hours, medium was aspirated and cells were washed once with 300 µl Leibovitz’s L-15 Medium (Invitrogen). A 30 minute incubation period followed in which all cells were incubated with 0.2 µM Myrcludex B-FITC with or without drug (1, 10, 100 µM) and Hoechst (1/1000) in 300 µL Leibovitz’s L-15 Medium. Cells were washed twice with Leibovitz’s L-15 Medium and subsequently 400 µL Leibovitz’s L-15 Medium was added. Live cell fluorescent imaging was performed using a Leica SP8X-SMD confocal microscope with fully enclosed incubation at 37 °C. A 63x oil objective was used and images were captured while the cells were consecutively excited at 490 nm (FITC) 350 nm (Hoechst). ImageJ software (National Insititutes of Health, Bethesda, MD) was employed for data analysis.

mouse NTCP = biological target: T2, mouse NTCP (Mus musculus, UniProt O08705); assay: Taurocholate uptake in U2OS cells transiently transfected with mouse NTCP; type: cell-based; details: at the calculated IC50 value for hNTCP
T2 construct: expressed in transfected cells; host or cells: U2OS (transient transfection, PEI)
T2 sequence (O08705 1-362): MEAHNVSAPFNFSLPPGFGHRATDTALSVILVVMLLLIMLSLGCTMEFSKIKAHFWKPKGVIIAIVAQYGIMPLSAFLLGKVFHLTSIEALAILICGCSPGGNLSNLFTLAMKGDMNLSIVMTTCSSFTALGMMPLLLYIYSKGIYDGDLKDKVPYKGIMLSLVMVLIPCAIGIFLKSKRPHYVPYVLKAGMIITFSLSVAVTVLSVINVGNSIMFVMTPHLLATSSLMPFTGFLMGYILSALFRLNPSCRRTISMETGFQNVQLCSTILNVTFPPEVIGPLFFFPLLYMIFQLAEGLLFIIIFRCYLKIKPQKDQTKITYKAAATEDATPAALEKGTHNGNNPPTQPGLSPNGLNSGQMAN
Procedure: (§3) U2OS and MDCK cells were grown in Dulbecco’s modified Eagle’s medium (DMEM, Sigma-Aldrich), supplemented with 10% FCS (Gibco), 1% L-glutamine (Lonza), and 1% penicillin/streptomycin (Lonza). […] Transient transfection of U2OS cells with mouse NTCP (mNTCP) was done with PEI reagent (Brunschwig, Basel, Switzerland). Shortly, U2OS cells were seeded one day prior to transfection in 24-well plates. On the day of transfection, 0.5 µg DNA was mixed with 100 µl unsupplemented DMEM and 3 µg/µl PEI. After 10–15 minute incubation at RT, 20 µl of the transfection mix was added to each 24-well. Transfected cells were used in further experiments 48–72 hours later. Cell lines were passaged twice a week at a confluence of 80%, and incubated in a humidified atmosphere of 37 °C + 5% CO2.
as §1, §2

human NTCP [4] = biological target: T1, human NTCP; assay: Screening taurocholate uptake assay (96-well, [14C]taurocholate, 10 µM drug); details: for Ranking score: ranking over the functional and the binding screening assay; for B-score functional assay: screening taurocholate uptake, 10 µM drug
human ASBT = biological target: T3, human ASBT (Homo sapiens, UniProt Q12908); assay: Taurocholate uptake in MDCK-hASBT cells; type: cell-based; details: compared with NTCP
T3 construct: expressed in transfected cells; gift of Paul Dawson; induced with sodium butyrate
T3 sequence (Q12908 1-348): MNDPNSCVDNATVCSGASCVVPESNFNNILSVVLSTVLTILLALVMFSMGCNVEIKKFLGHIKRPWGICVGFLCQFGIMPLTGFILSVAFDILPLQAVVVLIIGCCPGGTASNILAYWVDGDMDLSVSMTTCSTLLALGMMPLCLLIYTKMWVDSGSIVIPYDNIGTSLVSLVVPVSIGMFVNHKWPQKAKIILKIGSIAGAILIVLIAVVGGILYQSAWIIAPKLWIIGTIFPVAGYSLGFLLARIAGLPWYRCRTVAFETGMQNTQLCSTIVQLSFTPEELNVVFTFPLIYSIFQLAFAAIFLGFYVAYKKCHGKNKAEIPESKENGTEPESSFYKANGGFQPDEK
Procedure: as §3, §1, §2

[5] = U2OS-HA-hNTCP cells, concentrations 1 nM to 10 mM, read-out: IC50 for hNTCP-mediated TC uptake
[6] = HepaRG cells infected with HBV, supernatant day 7 to 10

SMILES	viability at 2 h, 1 µM [1] [%]	viability at 2 h, 100 µM [1] [%]	HDV infection in HepaRG cells (in words) (HDV)	HBV infection in HepaRG cells (in words) (HBV)	IC50 (human NTCP [2]; [5]) [µM]	Taurocholate uptake into U2OS-HA-hNTCP cells (in words) (human NTCP [2])	Myrcludex B-FITC fluorescence / binding to U2OS-HA-hNTCP cells (in words) (human NTCP [3])	≥50% loss of Myrcludex B binding to hNTCP (concentration) (human NTCP [3])	inhibition of mouse Ntcp-mediated taurocholate uptake compared with human NTCP (mouse NTCP)	viability at 2 h, 1 µM (in vitro; U2OS-HA-hNTCP cells) [%]	viability at 2 h, 10 µM (in vitro; U2OS-HA-hNTCP cells) [%]	viability at 2 h, 100 µM (in vitro; U2OS-HA-hNTCP cells) [%]	Ranking score (human NTCP [4])	B-score functional assay (human NTCP [4])	viability at 2 h, 10 µM [1] [%]	further results
O=C(O)Cc1cc(I)c(Oc2ccc(O)c(I)c2)c(I)c1 [TRIAC, 3,3′,5-Triiodothyroacetic acid]	100 ± 7.5	81.6 ± 3.8	reduced HBV/HDV infection; also recorded: reduce	reduced HBV/HDV infection; also recorded: reduce												number of HBcAg positive stained cells (HBV): mild reduction; viability at 2 h, 1 µM (in vitro): 109 ± 4.1%; viability at 2 h, 10 µM (in vitro): 105 ± 2.1%; viability at 2 h, 100 µM (in vitro): 86.3 ± 4.9%
CS(=O)(=O)O.Cc1c(O)cccc1C(=O)N[C@@H](CSc1ccccc1)[C@H](O)CN1C[C@H]2CCCC[C@H]2C[C@H]1C(=O)NC(C)(C)C [Nelfinavir Mesylate Hydrate]					134	reduced in a dose-dependent fashion	reduced Myrcludex B-FITC fluorescence	≥100 µM								cell viability by WST-1 (U2OS cells; 1 µM): 105.9 ± 8.4%; cell viability by WST-1 (U2OS cells; 10 µM): 102 ± 10.7%; cell viability by WST-1 (U2OS cells; 100 µM): 95.1 ± 5.6%; cell viability by WST-1 (U2OS-HA-hNTCP cells; 1 µM): 105.3 ± 7.1%; cell viability by WST-1 (U2OS-HA-hNTCP cells; 10 µM): 99.8 ± 5.2%; cell viability by WST-1 (U2OS-HA-hNTCP cells; 100 µM): 104.8 ± 4.5%
Nc1c2c(nc3ccccc13)CCCC2O.O=C(O)/C=C\C(=O)O (centres unmarked) [Hydroxytacrine Maleate]					4200	not	not	Not confirmed								cell viability by WST-1 (U2OS cells; 1 µM): 107.6 ± 15.7%; cell viability by WST-1 (U2OS cells; 10 µM): 100.7 ± 7.1%; cell viability by WST-1 (U2OS cells; 100 µM): 95.8 ± 3.9%; cell viability by WST-1 (U2OS-HA-hNTCP cells; 1 µM): 105.6 ± 1.2%; cell viability by WST-1 (U2OS-HA-hNTCP cells; 10 µM): 102 ± 8.3%; cell viability by WST-1 (U2OS-HA-hNTCP cells; 100 µM): 96.7 ± 5.9%; outcome of follow-up screening of hits found in only one of the two screens (human NTCP [2]; follow-up of TC uptake and Myrcludex B binding): false positives
Cc1c(Cl)cccc1Nc1ccccc1C(=O)O [Tolfenamic Acid, Tolfenamic acid]					12.5	reduced in a dose-dependent fashion	reduced Myrcludex B-FITC fluorescence	≥100 µM	inhibited similarly as human NTCP	116 ± 10.3	118 ± 13	107 ± 12.4	28.5657	-4.169		viability at 1 µM [1]: 94.7 ± 6.3%; viability at 10 µM [1]: 105 ± 11.7%; viability at 100 µM [1]: 82.1 ± 4.8%; ≥50% loss of Myrcludex B binding to hNTCP (concentration) (human NTCP [3]; listed as tolfenamic acid): ≤ 100 µM
Cc1cc(-n2c(=O)[nH]c(=O)n(C)c2=O)ccc1Oc1ccc(SC(F)(F)F)cc1 [Toltrazuril]	115 ± 6.1	101 ± 3.6			84.1	reduced in a dose-dependent fashion	reduced Myrcludex B-FITC fluorescence	≥10 µM		100 ± 9.9	109 ± 12.9	105 ± 11.4	35.4965	-3.14	109 ± 11.8	
O=C(O)c1ccccc1Nc1cccc(C(F)(F)F)c1 [Flufenamic Acid, Flufenamic acid]	109 ± 9.1	104 ± 3.6			10	reduced in a dose-dependent fashion	reduced Myrcludex B-FITC fluorescence	≥100 µM	more capable of inhibiting mouse Ntcp; also recorded: more potent in inhibiting mouse NTCP	125 ± 15.2	118 ± 9.6	107 ± 9.6	48.7852	-5.588	108 ± 8.5	≥50% loss of Myrcludex B binding to hNTCP (concentration) (human NTCP [3]; listed as Flufenamic acid): ≤ 100 µM
CCCCC1=NC2(CCCC2)C(=O)N1Cc1ccc(-c2ccccc2-c2nnn[nH]2)cc1 [irbesartan, reference compound]			reduce	reduce									197.737	-3.733		concentration effective in reducing HBeAg and HBsAg production (HBV; [6]): 17 µM; NTCP inhibition in the screen (in words) (human NTCP [4]; 10 µM, both screening assays): confirmed NTCP inhibition; position among the hits of the screen (combined ranking of both screening assays) (human NTCP [4]; 1280 drugs at 10 µM, TC uptake and Myrcludex B binding screens combined): ≤ 150
CN(CCOc1ccc(CC2SC(=O)NC2=O)cc1)c1ccccn1 (centres unmarked) [Rosiglitazone]	104 ± 7.2	104 ± 2.5	reduced HBV/HDV infection; also recorded: reduce	reduced HBV/HDV infection; also recorded: reduce					more capable of inhibiting mouse Ntcp; also recorded: more potent in inhibiting mouse NTCP	111 ± 4.4	106 ± 4.5	103 ± 6			107 ± 3.4	inhibition of ASBT-mediated taurocholate uptake (human ASBT): inhibited ASBT less effectively and at higher concentrations than observed for NTCP; also recorded: inhibit ASBT in a concentration-dependent fashion; concentration effective in reducing HBsAg (HBV; [6]): ≥ 50 µM; number of HBcAg positive stained cells (HBV): severely reduced; IC50 (human NTCP [2]): 5.1 µM
